{"source": "patent US11065244B2", "about": "“Methods of use of tetrahydroberberine (THB)” (DIGNITY HEALTH, priority 2010, dated 2021)", "key": {"[1]": {"target": "T1, pancreatic β-cell KATP channels (Rattus norvegicus, UniProt P70673+Q09429)", "T1 construct": "Single Channel Currents of KATP Channels in Rat Pancreatic β-Cells; from tissue; host or cells: rat pancreatic β-cells", "T1 sequence (P70673 whole entry)": "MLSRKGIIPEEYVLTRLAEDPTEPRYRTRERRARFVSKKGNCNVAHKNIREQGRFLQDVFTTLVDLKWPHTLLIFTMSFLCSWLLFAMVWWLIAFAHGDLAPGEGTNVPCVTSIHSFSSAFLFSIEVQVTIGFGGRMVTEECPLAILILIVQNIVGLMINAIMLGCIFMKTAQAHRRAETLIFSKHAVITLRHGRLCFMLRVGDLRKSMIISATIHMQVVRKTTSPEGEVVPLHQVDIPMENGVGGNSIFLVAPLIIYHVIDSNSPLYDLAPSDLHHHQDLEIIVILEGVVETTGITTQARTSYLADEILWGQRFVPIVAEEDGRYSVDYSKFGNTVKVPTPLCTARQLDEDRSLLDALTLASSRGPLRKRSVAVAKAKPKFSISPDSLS", "T1 sequence (Q09429 whole entry)": "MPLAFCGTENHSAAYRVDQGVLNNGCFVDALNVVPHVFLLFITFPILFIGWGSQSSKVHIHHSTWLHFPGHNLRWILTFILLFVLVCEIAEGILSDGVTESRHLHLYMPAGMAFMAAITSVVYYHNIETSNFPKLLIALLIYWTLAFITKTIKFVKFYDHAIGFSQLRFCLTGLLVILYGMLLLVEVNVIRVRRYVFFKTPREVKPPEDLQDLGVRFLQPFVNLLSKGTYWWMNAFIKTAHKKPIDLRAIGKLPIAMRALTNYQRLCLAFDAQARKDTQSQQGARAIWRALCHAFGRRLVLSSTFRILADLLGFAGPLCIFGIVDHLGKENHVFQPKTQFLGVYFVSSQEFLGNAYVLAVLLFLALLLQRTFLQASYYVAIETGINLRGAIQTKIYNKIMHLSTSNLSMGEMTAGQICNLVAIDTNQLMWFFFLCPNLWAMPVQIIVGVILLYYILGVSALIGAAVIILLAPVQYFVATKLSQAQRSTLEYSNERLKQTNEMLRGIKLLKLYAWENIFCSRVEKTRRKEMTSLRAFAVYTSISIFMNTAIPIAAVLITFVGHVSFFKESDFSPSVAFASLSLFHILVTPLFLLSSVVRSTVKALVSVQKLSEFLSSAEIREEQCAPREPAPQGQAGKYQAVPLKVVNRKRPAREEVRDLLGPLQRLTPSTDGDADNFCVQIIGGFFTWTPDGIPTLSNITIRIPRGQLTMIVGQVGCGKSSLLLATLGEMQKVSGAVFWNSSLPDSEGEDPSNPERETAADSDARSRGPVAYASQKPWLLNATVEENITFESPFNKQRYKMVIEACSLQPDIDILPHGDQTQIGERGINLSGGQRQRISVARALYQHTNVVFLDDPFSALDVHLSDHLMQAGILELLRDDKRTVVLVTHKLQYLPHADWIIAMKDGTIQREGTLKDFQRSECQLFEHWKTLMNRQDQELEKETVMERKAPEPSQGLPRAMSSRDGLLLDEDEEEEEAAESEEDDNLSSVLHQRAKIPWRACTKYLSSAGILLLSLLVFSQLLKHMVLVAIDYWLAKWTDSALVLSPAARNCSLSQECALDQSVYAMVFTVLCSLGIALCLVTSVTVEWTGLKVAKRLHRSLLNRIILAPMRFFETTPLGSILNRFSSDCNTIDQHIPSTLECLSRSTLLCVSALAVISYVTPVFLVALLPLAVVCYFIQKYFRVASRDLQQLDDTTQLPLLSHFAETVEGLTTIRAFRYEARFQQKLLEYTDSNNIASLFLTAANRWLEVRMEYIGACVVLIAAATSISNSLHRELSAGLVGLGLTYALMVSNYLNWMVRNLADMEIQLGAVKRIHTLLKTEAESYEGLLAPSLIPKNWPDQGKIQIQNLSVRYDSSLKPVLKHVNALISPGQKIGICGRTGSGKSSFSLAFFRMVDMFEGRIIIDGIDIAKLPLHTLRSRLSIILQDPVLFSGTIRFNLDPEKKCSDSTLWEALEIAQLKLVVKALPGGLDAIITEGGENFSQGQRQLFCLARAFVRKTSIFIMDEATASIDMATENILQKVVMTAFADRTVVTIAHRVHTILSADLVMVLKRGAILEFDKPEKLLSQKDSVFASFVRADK", "test": "Inside-out patch single channel recording in rat pancreatic β-cells, ATP free solution", "type": "cell-based", "settings": "bath-applied"}, "[2]": {"target": "T2, Kir6.2SUR1 KATP channels (Homo sapiens, UniProt Q09428+Q14654)", "T2 construct": "expressed in transfected cells; host or cells: HEK-293", "T2 sequence (Q14654 whole entry)": "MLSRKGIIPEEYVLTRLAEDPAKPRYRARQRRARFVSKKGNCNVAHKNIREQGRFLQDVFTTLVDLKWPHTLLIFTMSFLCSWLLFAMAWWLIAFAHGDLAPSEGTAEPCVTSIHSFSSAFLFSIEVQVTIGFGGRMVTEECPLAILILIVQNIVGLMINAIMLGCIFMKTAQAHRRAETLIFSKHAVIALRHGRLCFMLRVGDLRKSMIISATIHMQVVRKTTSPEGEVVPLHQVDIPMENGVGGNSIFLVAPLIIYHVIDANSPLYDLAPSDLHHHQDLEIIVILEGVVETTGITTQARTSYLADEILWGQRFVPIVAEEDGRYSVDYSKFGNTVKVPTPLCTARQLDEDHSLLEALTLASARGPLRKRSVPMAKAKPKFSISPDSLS", "T2 sequence (Q09428 whole entry)": "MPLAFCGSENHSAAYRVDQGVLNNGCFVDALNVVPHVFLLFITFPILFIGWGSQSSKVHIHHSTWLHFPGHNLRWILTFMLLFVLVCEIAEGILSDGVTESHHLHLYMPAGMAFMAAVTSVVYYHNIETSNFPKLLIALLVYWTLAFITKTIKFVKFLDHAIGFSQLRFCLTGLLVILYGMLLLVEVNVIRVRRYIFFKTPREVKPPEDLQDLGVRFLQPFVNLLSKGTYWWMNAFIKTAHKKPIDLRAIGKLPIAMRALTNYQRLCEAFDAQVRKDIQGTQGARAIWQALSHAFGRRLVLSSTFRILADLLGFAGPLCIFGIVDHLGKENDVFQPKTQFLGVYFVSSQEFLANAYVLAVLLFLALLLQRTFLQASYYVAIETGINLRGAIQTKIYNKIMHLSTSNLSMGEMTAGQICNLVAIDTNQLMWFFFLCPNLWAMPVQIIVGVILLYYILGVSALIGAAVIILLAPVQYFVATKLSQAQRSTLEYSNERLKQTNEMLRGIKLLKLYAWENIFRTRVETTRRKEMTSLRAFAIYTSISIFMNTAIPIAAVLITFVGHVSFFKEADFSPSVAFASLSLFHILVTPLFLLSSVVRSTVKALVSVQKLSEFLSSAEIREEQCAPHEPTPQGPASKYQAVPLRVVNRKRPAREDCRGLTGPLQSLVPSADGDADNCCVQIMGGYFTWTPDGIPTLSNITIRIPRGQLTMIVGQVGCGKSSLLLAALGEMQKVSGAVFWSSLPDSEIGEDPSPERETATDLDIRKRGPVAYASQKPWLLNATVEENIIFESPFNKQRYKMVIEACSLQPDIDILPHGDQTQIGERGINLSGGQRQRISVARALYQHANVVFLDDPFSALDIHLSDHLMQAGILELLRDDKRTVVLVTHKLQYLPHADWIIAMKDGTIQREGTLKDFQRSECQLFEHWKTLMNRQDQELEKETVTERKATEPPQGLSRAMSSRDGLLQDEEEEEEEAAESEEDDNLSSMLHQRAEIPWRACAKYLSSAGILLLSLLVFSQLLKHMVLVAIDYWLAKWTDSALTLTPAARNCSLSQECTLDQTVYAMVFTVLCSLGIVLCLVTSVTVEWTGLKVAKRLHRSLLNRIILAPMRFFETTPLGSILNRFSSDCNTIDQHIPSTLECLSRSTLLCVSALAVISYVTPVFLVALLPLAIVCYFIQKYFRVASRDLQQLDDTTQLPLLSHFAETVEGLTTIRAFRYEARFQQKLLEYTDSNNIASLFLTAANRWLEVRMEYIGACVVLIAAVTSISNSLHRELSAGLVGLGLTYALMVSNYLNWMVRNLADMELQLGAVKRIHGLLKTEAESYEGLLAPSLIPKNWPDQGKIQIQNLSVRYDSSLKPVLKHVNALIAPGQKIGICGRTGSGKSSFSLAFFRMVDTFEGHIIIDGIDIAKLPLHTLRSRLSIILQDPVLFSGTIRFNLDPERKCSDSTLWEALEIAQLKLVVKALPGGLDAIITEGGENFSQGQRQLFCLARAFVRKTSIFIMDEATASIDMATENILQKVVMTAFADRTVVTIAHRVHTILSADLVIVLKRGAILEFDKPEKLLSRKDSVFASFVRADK", "test": "Patch-clamp cell attached single-channel recording of transfected Kir6.2SUR1 channels in HEK-293 cells", "type": "cell-based", "experimental": "In β-cells, the dominant subtype of KATP is the Kir 6.2SUR1 subtype, as earlier described. Cells transiently transfected with the KATP Kir 6.2SUR1 channel subtype were evaluated for membrane potential and action potential firing using cell-attached recording in the presence or absence of 100 μm THB (FIG. 8A).\nTo further determine the effects of THB and Ipt on pancreatic β-cell-type KATP channels, the inventor examined the effects of THB or Ipt on the transfected Kir6.2SUR1 KATP channels in HEK-293 cells."}, "[3]": {"target": "T1, pancreatic β-cell KATP channels", "test": "Whole-cell KATP currents induced by ramp pulses in rat pancreatic β-cells", "type": "cell-based", "settings": "100 μM bath application; external glucose 5.5 mM; ramp −90 to −50 mV", "experimental": "To determine whether or not THB and Ipt can block pancreatic β-cell KATP channels, whole-cell currents induced by repetitive ramp pulses from −90 to −50 mV (at 0.2 Hz) were recorded in voltage-clamp mode (external glucose=5.5 mM)."}, "[4]": {"test_system": "D2 receptor and dopamine-opened K+ channels", "test": "Dopamine-induced membrane potential hyperpolarization in dissociated SNc DA neurons", "type": "cell-based, rat", "experimental": "All experiments were performed at room temperature (22±1° C.)."}, "[5]": {"test_system": "rat pancreatic islets", "test": "Insulin release from rat pancreatic islets", "type": "cell-based", "settings": "100 μM; 5.5 mM glucose external; from 22.5±1.2", "experimental": "With 5.5 mM glucose in the external solution, basal insulin secretion was measured. […] Bath application of 100 μM THB increased insulin secretion from 22.5±1.2 to 39.4±1.5 pg/islet/min (FIG. 5; P<0.01; 6 cells) and 100 μM Ipt increased insulin secretion from 22.5±1.2 to 34.5±1.8 pg/islet/min (FIG. 11; P<0.05; 7 cells)."}, "[6]": {"target": "T3, KATP channels in SNc DA neurons (Rattus norvegicus, UniProt P70673+Q09429)", "T3 construct": "functional KATP channels natively expressed on midbrain dopamine neurons; from tissue; host or cells: acutely dissociated dopaminergic neurons of rat substantia nigra pars compacta", "T3 sequence (P70673 whole entry)": "as the sequence (P70673 whole entry) above", "T3 sequence (Q09429 whole entry)": "as the sequence (Q09429 whole entry) above", "test": "Perforated patch current-clamp recording of rotenone-opened KATP channels in dissociated SNc DA neurons", "type": "cell-based", "settings": "for altered membrane potential in the presence of rotenone: FIG. 5C", "experimental": "The protocol for preparation of single neurons from the rat SNc was approved by the Institutional Animal Care and Use Committee of the Barrow Neurological Institute. Single DA neurons were acutely dissociated from the SNc of 2-3-week-old Wistar rats following the protocol as previously described. Briefly, rats were anesthetized with isoflurane, and brain tissue was rapidly removed and immersed in cold (2-4° C.) dissection solution which contained: 136.7 mM NaCl, 5 mM KCl, 0.1 mM Na2HPO4, 0.2 mM KH2PO4, 9.84 mM HEPES, 16.6 mM D-glucose, 21.9 mM sucrose, pH 7.3, 330 mOsm, oxygenated with 100% O2 [8]. Three 400-μm coronal slices containing the SNc were cut using a vibrotome (Vibroslice 725M, WPI, Sarasota, Fla.). After cutting, slices were continuously bubbled with 95% O2-5% CO2 at room temperature (22±1° C.) for at least one hour in artificial cerebrospinal fluid (ACSF), which contained: 124 mM NaCl, 5 mM KCl, 24 mM NaHCO3, 1.3 mM MgSO4, 1.2 mM KH2PO4, 2.4 mM CaCl2, and 10 mM glucose, pH 7.4. Thereafter, slices were treated with pronase (1 mg per 6 ml) at 31° C. for 30 minutes in ACSF. The SNc was identified in a coronal slice using a stereo microscope with reference to the rat brain atlas, and was micro-punched out from slices using a well-polished needle. One punched piece was then transferred to a 35-mm culture dish filled with well-oxygenated standard extracellular solution, which contained: 150 mM NaCl, 5 mM KCl, 1 mM MgCl2, 2 mM CaCl2, 10 mM glucose 10, and 10 mM HEPES, pH 7.4 (with Tris-base). The punched piece was then dissociated mechanically using a fire-polished micro-Pasteur pipette under an inverted microscope (Olympus IX-70, Lake Success, N.Y.). The separated cells adhered to the bottom of the culture dish within 30 minutes. In the present study, we used only DA neurons that maintained their original morphological features of polygonal, large or medium somata with 2-4 thick primary dendritic processes were used.\nPerforated patch whole-cell recording techniques were employed as previously described. Pipettes (3-5 MΩ) used for perforated patch recording were filled with intracellular recording solution containing 140 mM potassium gluconate, 10 mM KCl, 5 mM MgCl2, and 10 mM HEPES, pH 7.2 (with Tris-OH). The amphotericin B was freshly prepared to 200-240 μg/ml from a 40 mg/ml in DMSO stock. The liquid junction potential was 14 mV calculated using Clamplex 9.2 (Axon Instruments, Foster City, Calif.) and corrections were made for junction potentials post-hoc. After tight seal (>2 GΩ) formation, it usually took about 5-20 min to convert to perforated patch mode, and an access resistance of 20-60 MΩ was accepted to start the experiments. Series resistance was not compensated in this study. The data were filtered at 2 kHz, acquired at 10 kHz and digitized on-line (Digidata 1322 series A/D board, Axon Instruments, Foster City, Calif.). […] Drug application was performed using a computer-controlled “U-tube” system as previously described. All experiments were performed at room temperature (22±1° C.). To enable identification of single, dissociated SNc neurons after a patch-clamp recording session, the recording pipette was filled with a fluorescent dye (lucifer yellow CH, Sigma Chemical Co., St. Louis, Mo., 1.0 mg/ml in the recording electrode) in some experiments. After conversion from the perforated patch to the conventional whole-cell recording mode, the dye was ejected into the cytoplasm by a pulse (200 ms, 0.5 Hz) of hyperpolarizing current (1.0 nA) for 3 min. Labeled cells were visualized using epifluorescence microscopy.\nUnder physiological conditions, the KATP channels are mostly closed. However, in the acutely-dissociated single neurons from rat SNc, there is background opening of KATP channels. […]"}}, "data": [{"smiles": "COc1ccc2c(c1OC)CN1CCc3cc4c(cc3C1C2)OCO4", "note": "(stereo not drawn) [THB, tetrahydroberberine]", "values": [{"measurement": "effect on single channel activities opened by ATP free solution", "setting": "[1]", "value": "inhibited these single channel activities"}, {"measurement": "normalized NPo value", "setting": "[2]; 100 μM, control as 1, THB 6 patches, Ipt 8 patches", "value": "0.51±0.05"}, {"measurement": "change in channel activity NP0 compared to control", "setting": "[2]; 100 μm THB, three experiments, FIG. 8B", "value": 50, "unit": "%"}, {"measurement": "effect on β-cell KATP channel-mediated whole-cell currents", "setting": "[3]", "value": "reduced these β-cell KATP channel-mediated currents"}, {"measurement": "membrane potential after co-application of dopamine with substance", "setting": "[4]; 100 μM THB (from −45.6±1.0, n=7), tolbutamide (from −45.3±2.3, n=4)", "value": "−38.6±1.2", "unit": "mV"}, {"measurement": "altered membrane potential on co-application with dopamine", "setting": "[4]; difference THB vs tolbutamide p>0.05", "value": "7.0±0.9", "unit": "mV"}, {"measurement": "insulin secretion after bath application", "setting": "[5]", "value": "39.4±1.5", "unit": "pg/islet/min"}, {"measurement": "membrane potential after substance during persistent perfusion of rotenone", "setting": "[6]; 1 μM rotenone, before: THB −61.7±1.3 (n=11), tolbutamide −61.6±1.2 (n=21), p<0.01", "value": "−46.7±0.9", "unit": "mV"}, {"measurement": "altered membrane potential in the presence of rotenone", "setting": "[6]; 1 μM substance", "value": "0.8±0.3", "unit": "mV"}, {"measurement": "altered membrane potential in the presence of rotenone", "setting": "[6]; 10 μM substance", "value": "5.7±0.7", "unit": "mV"}, {"measurement": "altered membrane potential in the presence of rotenone", "setting": "[6]; 100 μM substance", "value": "15.1±1.2", "unit": "mV"}, {"measurement": "altered membrane potential (depolarization) on rotenone-opened KATP channels, analog comparison", "setting": "[6]; 100 μM, 6 neurons, FIG. 4B", "value": "15.5±1.6", "unit": "mV"}, {"measurement": "Hill coefficient of concentration-effect relationship curve", "setting": "[6]; membrane depolarization in the presence of rotenone", "value": 2.1}, {"measurement": "IC50", "setting": "[6]; membrane depolarization in the presence of rotenone, read-out: IC50 of concentration-effect relationship curve (block of KATP channels)", "value": 13.1, "unit": "µM"}, {"measurement": "effect on rotenone-induced membrane hyperpolarization in the presence of D2 receptor antagonist", "setting": "[6]; rotenone 1 mM and sulpiride 10 mM as printed, 6 neurons, FIG. 7A", "value": "significantly restored membrane hyperpolarization and action potential firing"}]}]}
